Results on 1 substance are retold here after patent US20240133870A1, “COMBINED TREATMENT FOR CANCER” (Yeda Research and Development Co. Ltd., priority 2021, published 2024).

The test system of experiment [1] is pERK in G361 xenograft tumors. Put plainly: EVOC of xenograft tumors in various tissues, pERK immunohistochemistry. As to conditions: co-treatment with vemurafenib 4 μM and AZD4547 2 μM. It is filed as cell-based, human. On the procedure:
(§1) SK-MEL-5 BRAF (V600E) melanoma cells were co-cultured with the lung-derived stromal cell line WI-38 or with the bone marrow-derived stromal cell line HS-5 with or without vemurafenib (4 μM). […] Vehicle—DMSO, EGFRi—gefitinib (0.1 μM), EGFRi/HER2i—lapatinib (10 nM), METi—crizotinib (0.1 μM), FGFRi—AZD4547 (50 nM), NFkB/TNFRi—CAPE (10 μM), TGFBRi-LY2109761 (0.5 μM), gp130i—SC144 (1 nM). P-values were calculated by two-sided t-test. *** P<0.001. Error bars represent standard error. […] P-values were calculated by two-sided t-test. *** P<0.001. Error bars represent standard error. […] Human BRAF (V600E) melanoma cell lines UACC62 or G361 were used to generate xenograft tumor models in various tissues of nude mice. When tumors reached a volume of 500-700 μmm^3, they were resected, sliced, and cultured ex-vivo in the presence of different drug combinations or DMSO control. Following 4 days of drug treatment, slices were fixed, embedded in paraffin blocks, and subjected to immunohistochemistry, using anti-pERK antibody, or to immuno-fluorescence, using anti-pFGFR1 antibody. BRAFi (vemurafenib, 4 μM), FGFRi (AZD4547, 2 μM). […]
(§2) For the ex-vivo experiments EVOCs from immunocompromised mice bearing human tumors were generated, as further described hereinbelow. For the in-vivo validation experiments, mice bearing subcutaneous tumors were used; and response was measured by evaluating tumor volume. […]

Experiment [2] concerns pERK in UACC62 xenograft tumors. The description is as above. The following applies: skin tumors; AZD4547 2 μM added to vemurafenib 4 μM. In kind it is cell-based, human. The procedure:
as §1, §2

With AZD4547, the pERK downregulation entry in experiment [1] was “sufficient to downregulate pERK in all of the different tumor locations”. The pERK inhibition result in experiment [2] is given as “near complete inhibition of pERK”.
